# Assay results: patent US20140271584A1, “Methods and Compositions for Direct Reprogramming of Somatic Cells to Stem Cells, and Uses of these Cells” (THE RESEARCH FOUNDATION FOR THE STATE UNIVERSITY OF NEW YORK, priority 2013, published 2014)
# Test system: AF cells
# Experiment: Colony formation of OCT4 lentivirus-transduced AF cells in ES or endothelial cell medium
# Assay type: cell-based, human
# Experimental: Transduction via integrating plasmid. Lentivirus based vectors carrying human SOX2 or OCT4 gene, or GFP only gene, each expressed under control of either the SFFV promoter or EF1α promoter, were packaged using the 293FT cell line (Invitrogen/Life Technologies, Inc.) to produce lentivirus. The viruses were concentrated by centrifugation and stored at −80° C. One day before infection, tissue culture dishes were coated with poly-L-ornithine (PLO) and laminin AF, BM, or HFF cells were seeded at a density of 15,000 cells/cm^2. Lentiviruses were added at a MOI of 10-100 in the presence of 8 μg/ml polybrene (EMD Millipore, Billerica, Mass.) for 6 hours. Efficiency was measured after 24-48 hours by expression of green fluorescence.
# After viral transduction, cells were transferred to human ES (embryonic stem cell) medium (supplemented with 20% Knockout Serum replacement, 2 mM glutamine, 0.1 mM non-essential amino acids, 10 ng/ml bFGF, 100 μM β-Mercaptoethanol) or endothelial cell medium, such as EGM2 (Lonza, Inc.).
SMILES,increase of the efficiency of colony formation (accelerated and increased) (0.1 mM in the culture media),increase of the efficiency of colony formation (accelerated and increased) (10 μM in the culture media)
"Nc1ncnc2c1nc(Br)n2[C@@H]1O[C@@H]2COP(=O)(O)O[C@H]2[C@H]1O [8-Br-cAMP, (1S,6R,8R,9R)-8-(6-amino-8-bromopurin-9-yl)-3-hydroxy-3-oxo-2,4,7-trioxa-3λ5-phosphabicyclo[4.3.0]nonan-9-ol]",approximately 15%,–
"Cc1cccc(-c2n[nH]cc2-c2ccc3ncccc3n2)n1 [compound 616452, 2-(3-(6-Methylpyridin-2-yl)-1H-pyrazol-4-yl)-1,5-naphthyridine]",–,approximately 15%
